pIC50: −log10 of the molar value. Calls of active or inactive are those of the source. The calls are words filed in the database; no cut-off is given here.
Columns and labels:
COLO 205 [1] = assay: Cytotoxicity against human COLO205 cells assessed as growth inhibition after 48 hrs by sulforhodamine B assay; type: functional, cell-based; details: COLO 205, 48 h
[2] = Cytotoxicity against human MIAPaCa2 cells assessed as growth inhibition at 50 uM after 48 hrs by sulforhodamine B assay relative to control; type: functional; details: MIA PaCa-2, 48 h, read-out: GI
A549 = assay: Cytotoxicity against human A549 cells assessed as growth inhibition at 50 uM after 48 hrs by sulforhodamine B assay relative to control; type: functional; details: A549, 48 h, read-out: GI
HCT-116 [3] = assay: Cytotoxicity against human HCT116 cells assessed as growth inhibition at 50 uM after 48 hrs by sulforhodamine B assay relative to control; type: functional; details: HCT-116, 48 h, read-out: GI
HCT-116 [4] = assay: Cytotoxicity against human HCT116 cells assessed as growth inhibition after 48 hrs by sulforhodamine B assay; type: functional, cell-based; details: HCT-116, 48 h
THP-1 [5] = assay: Cytotoxicity against human THP1 cells assessed as growth inhibition after 48 hrs by sulforhodamine B assay; type: functional, cell-based; details: THP-1, 48 h
HeLa = assay: Cytotoxicity against human HeLa cells assessed as growth inhibition at 50 uM after 48 hrs by sulforhodamine B assay relative to control; type: functional; details: read-out: GI
COLO 205 [6] = assay: Cytotoxicity against human COLO205 cells assessed as growth inhibition at 50 uM after 48 hrs by sulforhodamine B assay relative to control; type: functional; details: COLO 205, 48 h, read-out: GI
THP-1 [7] = assay: Cytotoxicity against human THP1 cells assessed as growth inhibition at 50 uM after 48 hrs by sulforhodamine B assay relative to control; type: functional; details: THP-1, 48 h, read-out: GI
CAKI-1 = assay: Cytotoxicity against human Caki1 cells assessed as growth inhibition at 50 uM after 48 hrs by sulforhodamine B assay relative to control; type: functional; details: CAKI-1, 48 h, read-out: GI
PC-3 [8] = assay: Cytotoxicity against human PC3 cells assessed as growth inhibition at 50 uM after 48 hrs by sulforhodamine B assay relative to control; type: functional; details: PC-3, 48 h, read-out: GI
PC-3 [9] = assay: Cytotoxicity against human PC3 cells assessed as growth inhibition after 48 hrs by sulforhodamine B assay; type: functional, cell-based; details: PC-3, 48 h
HCT-116 [10] = assay: Disruption of microtubule organization in human HCT116 cells at 5 uM after 48 hrs by DAPI staining-based laser scanning confocal microscopic analysis; type: cell-based
Tubulin = assay: Inhibition of tubulin (unknown origin) polymerization after 1 hr by ELISA plate reader analysis; type: protein-complex assay, Homo sapiens

Compound	pIC50 (COLO 205 [1])	inhibition of growth at 50 µM [2] [%]	inhibition of growth at 50 µM (A549) [%]	inhibition of growth at 50 µM (HCT-116 [3]) [%]	pIC50 (HCT-116 [4])	pIC50 (THP-1 [5])	inhibition of growth at 50 µM (HeLa) [%]	inhibition of growth at 50 µM (COLO 205 [6]) [%]	inhibition of growth at 50 µM (THP-1 [7]) [%]	inhibition of growth at 50 µM (CAKI-1) [%]	inhibition of growth at 50 µM (PC-3 [8]) [%]	pIC50 (PC-3 [9])	Activity (HCT-116 [10])	pIC50 (Tubulin)
COc1cccc(/C=C/C(=O)/C=C/c2ccc(OCc3cn(CCN4C(=O)C(=O)c5ccccc54)nn3)c(OC)c2)c1	5.13	15	13	77	5.41	5.36	14	69	70	17	66	5.04		
COc1cc(/C=C/C(=O)/C=C/c2cc(OC)c(OC)c(OC)c2)ccc1OCc1cn(CCN2C(=O)C(=O)c3ccccc32)nn1	5.38	25	22	99	5.95	5.54	20	86	89	25	85	5.25	Active	5.63
COc1cc(/C=C/C(=O)/C=C/c2cccc3ccccc23)ccc1OCc1cn(CCN2C(=O)C(=O)c3ccccc32)nn1	5.10	11	10	89	5.32	5.21	10	80	83	14	77	5.07		5.15
COc1ccccc1/C=C/C(=O)/C=C/c1ccc(OCc2cn(CCN3C(=O)C(=O)c4ccccc43)nn2)c(OC)c1	5.09	13	11	75	5.34	5.20	12	67	70	15	64	5.05		
COc1cc(/C=C/C(=O)/C=C/c2cc(OC)c(OC)c(OC)c2)ccc1OCc1cn(CCN2C(=O)C(=O)c3cc(Cl)ccc32)nn1	5.22	13	22	89	5.66	5.34	15	84	86	13	80	5.15		
